Measured values taken from patent US6531636B1, “Synthetic endogenous cannabinoids analogues and uses thereof” (priority 1998, dated 2003).

How the values were obtained:
[1] = system: rats, mean arterial pressure; experiment: Hypotensive effect in non-anaesthetized cannulated rats; assay type: in vivo; settings: dose 12 mg/Kg
Experimental: To evaluate the potency of the compounds of the present invention as anti-hypertension agents, each compound was dissolved in a mixture of ethanol:emulphor:saline (1:1:18) and administered to non-anaestisized rats, cannulated through the aorta (for injection) and the jugular view (for measurements of blood pressure). […]

[2] = system: mice; experiment: Analgesia, standard hot plate test in mice; assay type: in vivo; settings: intravenous injection in tail vein
Experimental: The novel compounds prepared as described above were evaluated for their potency in […], according to the standard hot plate test, as briefly described hereinafter.
The compounds of the invention (HU-310, HU-313 and HU-314) wee dissolved in a detergent (Emulphomethanol:saline (5:5:90)) mixture and administered by intravenous injection in the tail vein of mice with an injection volume of 0.1 ml/10 g of body weight.

[3] = system: pigeons suffering from emesia caused by cisplatin; experiment: Antiemetic activity, cisplatin-induced emesis in pigeons; assay type: in vivo; settings: subcutaneous
Experimental: The compounds of the invention were also evaluated for their potency as an antiemetic agent following the procedure described by Feigenbaum et al., [Eur. J. Pharmacol. 169:159-165 (1989, wherein pigeons suffering from emesia caused by an antineoplastic drug (cisplatin) were used as the model.
Accordingly, each compound was dissolved in Emulphor (detergent):ethanol:saline (5:5:90) and administered subcutaneously to the pigeons. The injection volume was 1.0 ml/kg body weight. Reduction of vomiting with 2-O-Arachidonyl glyceryl ether (HU-310) was 50% when using 3.0 mg of the active ingredient per kg body weight.

[4] = system: female mice, arachidonic acid-induced paw swelling; experiment: Arachidonic acid-induced paw edema in mice; assay type: in vivo; settings: paw volume 30 min after arachidonic acid
Experimental: The potency of each of the compounds of the invention were evaluated for their potency to act as anti-inflammatory agents, according to the method described Calhoun W. et al., [Calhoun W. et al. Agents and Actions 21:306-309 (1987)]. In the method, water was substituted for mercury as the displacement medium. Platelet Activating Factor (PAF) (1.0 μg) or arachidonic acid (1.0 mg) dissolved in […] of a saline buffer containing 5% ethanol were injected subcutaneously into the plantar surface of the right hind paw of ether anaesthetized female mice (20-25 gr). The volume of the right foot was measured to the level of the lateral malleous by water displacement before treatment and 15 min after PAF injection or 30 min after arachidonic injection. The change in paw volume was calculated for each mouse. Table 2 presents the inhibition of archidonic acid induced paw swelling. The values obtained are measured as the increase in paw volume using a plethysmometer. The degree of swelling was expressed as the percentage in drug-treated mice compared to inhibition of paw edema from vehicle (Emulphor:ethanol:saline) treated controls (95% significance by ANOVA. N=5 mice/group). Control animals received peanut oil (50 μl).

[5] = molecular target: T1, CB1 receptor (Rattus norvegicus, UniProt P20272); experiment: Competitive inhibition of [3H]HU-243 binding to CB1, synaptosomal membranes; settings: [3H]HU-243 60 pM, synaptosomal membrane protein
T1 construct: 4 μg of synaptosomal membrane protein were homogenized in 50 mM Tris-HCl; from tissue; host or cells: synaptosomal membranes (brain tissue)
Experimental: In principle, 4 μg of synaptosomal membrane protein were homogenized in 50 mM Tris-HCl, 2 mM MgCl2 and 1 mM EDTA pH 7.4 to obtain the binding mixture having a final concentration of 60 pM, with which the Ki was determined according to the assay described by Devane et al. [Devane et al. (1992) ibid.]. […] Ki values were calculated according to following known equation: Ki-IC50/(1+[L]/Kd) wherein IC50 is the concentration of a compound that will reduce a specific binding of a given radioligand by 50%; [L] is the concentration of the radioligand used in the assay and Kd is the dissociation constant for the radioligand (see also FIG. 3).

[6] = system: rabbits with chymotrypsin-induced glaucoma; experiment: Antiglaucoma activity, chymotrypsin-induced stable glaucoma in rabbits; assay type: in vivo; settings: 0.01% in aqueous solution
Source text: Each compound was further evaluated for their potency as agent for treating and/or preventing glaucoma. Accordingly, stable glaucoma was induced in rabbits by injecting into the eye δ-chymotrypsin as described by Mechoulam R. et al., [Mechoulam R. et al., The Therapeutic Potential of Marihuana eds S. Cohen, R. C. Stillman Plenum Press, N.Y., pp. 35-48 (1975)]. As a control, pilocarpine, a standard antiglaucoma drug, was employed showing intraocular pressure (I.O.P.) reduction at a concentration of 0.01% in aqueous solution and provided a period of 30 hours delay in the recovery of the original chymotrypsin-induced IOP.
The compounds of the invention were each dissolved in a detergent (Emulphor:ethanol:saline (5:5:90)) mixture and then further diluted with saline to obtain the desired concentrations.

T1 sequence (P20272 whole entry): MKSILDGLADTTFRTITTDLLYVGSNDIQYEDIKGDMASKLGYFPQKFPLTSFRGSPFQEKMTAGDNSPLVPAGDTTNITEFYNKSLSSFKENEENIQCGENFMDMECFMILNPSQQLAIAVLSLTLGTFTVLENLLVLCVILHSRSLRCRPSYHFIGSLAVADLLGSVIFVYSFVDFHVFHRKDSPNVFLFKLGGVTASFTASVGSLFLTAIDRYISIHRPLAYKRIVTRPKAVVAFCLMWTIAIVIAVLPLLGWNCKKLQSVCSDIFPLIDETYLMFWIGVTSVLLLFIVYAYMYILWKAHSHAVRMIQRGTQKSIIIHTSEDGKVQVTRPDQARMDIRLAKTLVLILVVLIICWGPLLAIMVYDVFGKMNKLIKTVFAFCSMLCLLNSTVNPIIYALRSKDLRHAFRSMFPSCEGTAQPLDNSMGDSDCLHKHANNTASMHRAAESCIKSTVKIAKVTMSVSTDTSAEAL

Row | SMILES | Latency to maximal effect [1] | Maximal hypotension (difference in mean arterial pressure before and after drug) [1] | Time of recovery [1] | Analgesia, ED50 [2] | other results
1 | CCCCC/C=C\C/C=C\C/C=C\C/C=C\CCCC(=O)OC(CO)CO [2-Ara-GL, 2-arachidonoyl glycerol] | 7.2 min | 34 mm Hg | 13.0 min | – | –
2 | CCCCC/C=C\C/C=C\C/C=C\C/C=C\CCCC(=O)NCCO [ANA, anandamide] | 2.0 min | 15 mm Hg | 7.0 min | – | –
3 | CCCCC/C=C\C/C=C\C/C=C\C/C=C\CCCCOC(CO)CO [HU-310, 2-O-Arachidonyl glyceryl ether] | 34.0 min | 105 mm Hg | 75.0 min | 2.8 mg/kg | Reduction of vomiting ([3]; 3.0 mg per kg body weight): 50%; Inhibition of Arachidonic Acid-induced Paw Edema ([4]; dose 5 mg/kg): 70.2%; Inhibition of Arachidonic Acid-induced Paw Edema ([4]; dose 10 mg/kg): 92.2%; Inhibition of Arachidonic Acid-induced Paw Edema ([4]; dose 25 mg/kg): 100.0%; Ki [5]: 62.3 ± 3 nM
4 | CC[C@@H]1C(=O)OC[C@@H]1Cc1cncn1C [pilocarpine] | – | – | – | – | Delay in the recovery of the original chymotrypsin-induced IOP [6]: 30 h
5 | CCCCC/C=C\C/C=C\C/C=C\CCCCCCCOC(CO)CO [HU-314, 2-dihomo-γ-linolenyl glyceryl ether] | – | – | – | 4.6 mg/kg | Reduction of vomiting (in words) ([3]; compared with HU-310): vomiting was also reduced, however to a lesser extent
